Results on 15 compounds are retold here after patent US12599676B2, “Cytotoxic imidazo[1,2-A]pyridine compounds and their use in therapy” (MyricX Pharma Limited, priority 2022, dated 2026).

The subject of data set [1] is SU-DHL-10 cell line (human B cell lymphoma). Kind of data set: Cell cytotoxicity in SU-DHL-10 cell line (CellTiter-Glo). Format: cell-based. The conditions noted are these: 72 h treatment, CTG. The method, then:
Certain Example compounds of the invention and Comparator Compound 1 were tested in the SU-DHL-10 cell line (human B cell lymphoma). Compounds which show efficacy in this assay are expected to be useful as agents for treating or preventing hyperproliferative disorders such as cancer.
Cells were seeded in 96-well microplates and treated with compounds or cisplatin (as a positive control) at 9 increasing concentrations in technical triplicate. […] On day 1, 90 μL of various cell suspensions with the number of cells ranging from 5000-8000 cells/well were seeded into wells of a 96-well plate (Corning). The number of cells to be seeded was previously determined. • 2. All 96-wells plates with cells were placed in an incubator overnight at 37° C. with 5% CO2. • 3. On day 2, cells were observed under a microscope ensuring the cells treated with vehicle control were in good condition. • 4. A dilution series of the test compounds and cisplatin were prepared at 10× the final concentrations required. 10 μL/well of 10× compound solution was added to the corresponding plates. The final volume was 100 μL/well for all the plates. Final DMSO concentration was 0.1%. • 5. On day 5 (after 72 hours of incubation), 50 μL of CTG reagent was added to each well. • 6. Contents were mixed for 5 minutes on an orbital shaker to facilitate cell lysis. • 7. The plate was allowed to incubate at room temperature for 10 minutes to stabilize luminescent signals.
Luminescence was recorded using an EnVision Multi Label Reader. Data analysis was performed using GraphPad Prism 8.0.
To calculate IC50, a concentration-response curve was generated using a nonlinear regression model with a sigmoidal concentration response. The formula for calculating the % of viable cells was shown below, and the IC50s are automatically generated by GraphPad Prism 8.0.
(LumTest article=luminescence in test article treated well; LumNone treated=luminescence in vehicle treated well; LumMedium control=luminescence in a well containing only medium and no cells; LumNone treated-LumMedium control was set as 100%)
(In general: ATP-based viability assays read luminescence as a measure of living cells.)

A short description of data set [2]: Caco-2 cell permeability assay. The class given is in vitro ADME. The conditions noted are these: human, Caco-2, pH 7.4, basal to apical Papp, pH 7.4, 2.5 h. On the procedure: (§1) Certain Example compounds and Comparative Example 1 were tested for their apical to basal (AB) and basal to apical (BA) permeability in Caco-2 cells.
(§2) Cell Culture: Caco-2 cells were grown for 10 days in 96-well plates in HBSS buffer containing 10 mM HEPES. Both the apical and basal pH was buffered at pH 7.4. The apical/basal volumes were 75 μl and 250 μl respectively. The incubation time was 2.5 h at 37° C. (without shaking) under 5% CO2 & 95% relative humidity.
(§3) Cell Seeding: Cells were seeded at a density of 18750 cells/well (membrane area=0.0804 cm^2) in a 96 well plate.
(§4) AB Assay: 75 μl of cell suspension was added at a density 2.5×10^5 cells/ml to the apical wells. 40 ml media was added to the feeder tray. The plates were placed in the incubator (37° C., 5% CO2 and controlled humidity). The Caco-2 cells were grown for 10 days with a media change on every alternate day.
(§5) BA Assay: 25 μl of cell suspension was added at a density of 7.5×10^5 cells/ml to the bottom side (keeping the plate upside down) of apical wells. The plate (upside down position) was placed in the incubator (37° C., 5% CO2 and 95% Relative humidity) for 2 h. The plate was turned right side up. 75 μl media was added to the apical wells and 40 ml media to the feeder tray.
(§6) Permeablity Assay: The apical and basal wells were washed with buffer (pH 7.4) and 250 μl buffer was added to the wells of the basal plate. 75 μl of compound solution (2 μM, dissolved in water with 1% DMSO) was transferred to the apical wells (n=2). The apical plate was placed onto the basal plate. The lid was placed on to prevent evaporation. The assembly was incubated at 37° C. for 2.5 h (without shaking) under 5% CO2 and 95% relative humidity. After incubation the apical plate was separated from the basal plate. Aliquots were taken out from the acceptor and donor wells, diluted and quantified using LC-MS/MS along with initial donor samples.
(§7) Membrane Integrity Test: Solution in the apical wells was discarded by inverting the plate and soaking onto tissue paper. 250 μl buffer (pH 7.4) was added to each well of basal plate and 75 μl of Lucifer Yellow (LY; 0.1 mg/ml) in buffer (pH 7.4) to the wells of apical plate. The apical plate was placed onto the basal plate and the lid used to prevent evaporation. The assembly was incubated at 37° C. for 1 h (without shaking) under 5% CO2 and 95% relative humidity. The apical plate was separated from the basal plate. Fluorescence (Ex: 432 nm, Em: 530 nm) of aliquots (100 ul) was measured from basal wells. Fluorescence of 100 μl buffer (pH 7.4) and 100 μl LY(0.1 mg/ml) was also measured. Wells having more than 1% fluorescence intensity with respect to 0.1 mg/ml LY were considered non-integrated membrane. Such wells, if any, were not considered for permeability calculation.
(§8) Calculation: Drug was detected and quantified by LC-MS/MS. Data generated took the form of an apparent permeability (Papp) value. Papp=[Va/(AreaxTime)]×(LC-MS Area of Acceptor sample×Sample dilution factor/LC-MS Area of Initial Donor). Va=Volume of Acceptor Well (in ml)=0.25, Vd=Volume of Donor Well (in ml)=0.075, Area=Surface area of the membrane (cm2)=0.0804, Time=Time of incubation (sec)=9000 Results: The results of the assay are shown in Table 3 below.
For orientation: Caco-2 cells form a polarised layer with tight junctions and transporters.

A further data set concerns Caco-2 cells. Kind of data set: Caco-2 cell permeability assay. Conditions: 2 μM, pH 7.4, 2.5 h; for Caco-2 A-B: apical to basal Papp; for Caco-2 B-A: basal to apical Papp. Format: in vitro ADME. The method, then:
as §1, §2, §3, §4, §5, §6, §7, §8

pIC50: −log10 of the molar value.

`Cc1c(CCOc2c(-c3ccc4ncc(CN)n4c3)ccc(F)c2F)c(C(C)(C)O)nn1C` [Example 20, 2-[4-(2-{6-[3-(aminomethyl)imidazo[1,2-a]pyridin-6-yl]-2,3-difluorophenoxy}ethyl)-1,5-dimethyl-1H-pyrazol-3-yl]propan-2-ol] gave a pIC50 in data set [1] (Homo sapiens, SU-DHL10, 72 h) of 7.92.
Turning to `Cc1c(CCOc2cc(F)ccc2-c2ccc3ncc(CN(C)C)n3c2)c(C(C)O)nn1C` (single isomer, unassigned) [Example 3, 1-(4-(2-(2-(3-((dimethylamino)methyl)imidazo[1,2-a]pyridin-6-yl)-5-fluorophenoxy)ethyl)-1,5-dimethyl-1H-pyrazol-3-yl)ethan-1-ol], in data set [1], the pIC50 was 8.03. In addition, in data set [2], the apparent permeability from basolateral to apical (Papp B→A) at 2.5 h, 2 μM was 22.6 ×10⁻⁶ cm/s. Besides, the “Caco-2 A-B” value in the data set with Caco-2 cells worked out at 1.2 ×10⁻⁶ cm/s.
Compound `CCNCc1cnc2ccc(-c3ccc(F)cc3OCCc3c(C(C)(C)O)nn(C)c3C)cn12` [Example 22, 2-{4-[2-(2-{3-[(ethylamino)methyl]imidazo[1,2-a]pyridin-6-yl}-5-fluorophenoxy)ethyl]-1,5-dimethyl-1H-pyrazol-3-yl}propan-2-ol] had a negative logarithm of the IC50 (pIC50) in data set [1] (Homo sapiens, SU-DHL10, 72 h) of 8.05.
As to `Cc1c(CCOc2cc(F)ccc2-c2ccc3ncc(CN(C)C)n3c2)c(C(O)C(C)(C)C)nn1C` (centres unmarked) [Example 11, 1-(4-(2-(2-(3-((dimethylamino)methyl)imidazo[1,2-a]pyridin-6-yl)-5-fluorophenoxy)ethyl)-1,5-dimethyl-1H-pyrazol-3-yl)-2,2-dimethylpropan-1-ol], in data set [1] (Homo sapiens, SU-DHL10, 72 h), the pIC50 is 9.05. In data set [2], this compound yielded an apparent permeability from basolateral to apical (Papp B→A) at 2.5 h, 2 μM of 78 ×10⁻⁶ cm/s. Further, the “Caco-2 A-B” value in the data set on Caco-2 cells came to 15.9 ×10⁻⁶ cm/s.
Consider `CNCc1cnc2ccc(-c3ccc(F)c(F)c3OCCc3c(C(O)C(C)(C)C)nn(C)c3C)cn12` (single isomer, unassigned) [Example 13, 1-(4-(2-(2,3-difluoro-6-(3-((methylamino)methyl)imidazo[1,2-a]pyridin-6-yl)phenoxy)ethyl)-1,5-dimethyl-1H-pyrazol-3-yl)-2,2-dimethylpropan-1-ol], for which the negative-log IC50 (pIC50) in data set [1] was 9.15.
Consider `CNCc1cnc2ccc(-c3ccc(F)c(F)c3OCCc3c(C(O)C(C)C)nn(C)c3C)cn12` (centres unmarked) [Example 25, 1-{4-[2-(2,3-difluoro-6-{3-[(methylamino)methyl]imidazo[1,2-a]pyridin-6-yl}phenoxy)ethyl]-1,5-dimethyl-1H-pyrazol-3-yl}-2-methylpropan-1-ol], for which, in data set [1] (Homo sapiens, SU-DHL10, 72 h), the pIC50 was 9.00.
In data set [2], `Cc1c(CCOc2cc(F)ccc2-c2ccc3ncc(CCN)n3c2)c(C(C)(C)O)nn1C` [Example 23, 2-(4-(2-(2-(3-(2-aminoethyl)imidazo[1,2-a]pyridin-6-yl)-5-fluorophenoxy)ethyl)-1,5-dimethyl-1H-pyrazol-3-yl)propan-2-ol] came in with a Papp B→A at 2.5 h, 2 μM of 9.7 ×10⁻⁶ cm/s. Also, in the data set with Caco-2 cells, the “Caco-2 A-B” value is 0 ×10⁻⁶ cm/s.
As for `CNCc1cnc2ccc(-c3ccc(F)cc3OCCc3c(C(C)(C)O)nn(C)c3C)cn12` [Example 18, 2-(4-(2-(5-fluoro-2-(3-((methylamino)methyl)imidazo[1,2-a]pyridin-6-yl)phenoxy)ethyl)-1,5-dimethyl-1H-pyrazol-3-yl)propan-2-ol], in data set [1] (Homo sapiens, SU-DHL10, 72 h), the pIC50 is 8.28. The same compound yielded a basolateral-to-apical permeability (Papp B→A) at 2.5 h, 2 μM in data set [2] of 21.1 ×10⁻⁶ cm/s. For the same compound, the “Caco-2 A-B” value with Caco-2 cells was 0.3 ×10⁻⁶ cm/s.
Regarding `CNCc1cnc2ccc(-c3ccc(F)cc3OCCc3c(C(O)C(C)(C)C)nn(C)c3C)cn12` (single isomer, unassigned) [Example 10, 1-(4-(2-(5-fluoro-2-(3-((methylamino)methyl)imidazo[1,2-a]pyridin-6-yl)phenoxy)ethyl)-1,5-dimethyl-1H-pyrazol-3-yl)-2,2-dimethylpropan-1-ol], in data set [1], the negative logarithm of the IC50 (pIC50) was 8.70. In the data set on Caco-2 cells, the “Caco-2 A-B” value was determined as 0.305 ×10⁻⁶ cm/s and the “Caco-2 B-A” value came out at 8.89 ×10⁻⁶ cm/s.
Regarding `Cc1c(CCOc2cc(F)ccc2-c2ccc3ncc(CN(C)C)n3c2)c(C(O)C(C)C)nn1C` (centres unmarked) [Example 24, 1-(4-(2-(2-(3-((dimethylamino)methyl)imidazo[1,2-a]pyridin-6-yl)-5-fluorophenoxy)ethyl)-1,5-dimethyl-1H-pyrazol-3-yl)-2-methylpropan-1-ol], in data set [1] (Homo sapiens, SU-DHL10, 72 h), the negative-log IC50 (pIC50) was 9.15.
For `Cc1c(CCOc2c(-c3ccc4ncc(CN(C)C)n4c3)ccc(F)c2F)c(C(O)C(C)(C)C)nn1C` (single isomer, unassigned) [Example 16, 1-(4-(2-(6-(3-((dimethylamino)methyl)imidazo[1,2-a]pyridin-6-yl)-2,3-difluorophenoxy)ethyl)-1,5-dimethyl-1H-pyrazol-3-yl)-2,2-dimethylpropan-1-ol], in data set [1], the negative-log IC50 (pIC50) was 9.70. In the data set with Caco-2 cells, the “Caco-2 A-B” value was 1.395 ×10⁻⁶ cm/s and the “Caco-2 B-A” value was 9.06 ×10⁻⁶ cm/s.
For the compound `Cc1c(CCOc2c(-c3ccc4ncc(CN)n4c3)ccc(F)c2F)c(C(O)C(C)(C)C)nn1C` (centres unmarked) [Example 17, 1-(4-(2-(6-(3-(aminomethyl)imidazo[1,2-a]pyridin-6-yl)-2,3-difluorophenoxy)ethyl)-1,5-dimethyl-1H-pyrazol-3-yl)-2,2-dimethylpropan-1-ol], the negative-log IC50 (pIC50) in data set [1] (Homo sapiens, SU-DHL10, 72 h) is 9.00.
In the case of `CNCc1cnc2ccc(-c3ccc(F)cc3OCCc3c(C(O)C(C)(C)C)nn(C)c3C)cn12` (centres unmarked) [Example 8, 1-(4-(2-(5-fluoro-2-(3-((methylamino)methyl)imidazo[1,2-a]pyridin-6-yl)phenoxy)ethyl)-1,5-dimethyl-1H-pyrazol-3-yl)-2,2-dimethylpropan-1-ol], in data set [1] (Homo sapiens, SU-DHL10, 72 h), the pIC50 was 9.15.
Take `Cc1c(CCOc2cc(F)ccc2-c2ccc3ncc(CN(C)C)n3c2)c(C(C)O)nn1C` (single isomer, unassigned) [Example 4, 1-(4-(2-(2-(3-((dimethylamino)methyl)imidazo[1,2-a]pyridin-6-yl)-5-fluorophenoxy)ethyl)-1,5-dimethyl-1H-pyrazol-3-yl)ethan-1-ol]: the negative-log IC50 (pIC50) in data set [1] (Homo sapiens, SU-DHL10, 72 h) is 7.92. In the data set on Caco-2 cells, the “Caco-2 A-B” value came to 1.3 ×10⁻⁶ cm/s and the “Caco-2 B-A” value was found to be 24.9 ×10⁻⁶ cm/s.
In turn, `Cc1c(CCOc2cc(F)ccc2-c2ccc3ncc(CN(C)C)n3c2)c(C(C)(C)O)nn1C` [Example 19, 2-(4-(2-(2-(3-((dimethylamino)methyl)imidazo[1,2-a]pyridin-6-yl)-5-fluorophenoxy)ethyl)-1,5-dimethyl-1H-pyrazol-3-yl)propan-2-ol] registered a Papp B→A at 2.5 h, 2 μM in data set [2] of 29.4 ×10⁻⁶ cm/s. Moreover, the “Caco-2 A-B” value in the data set on Caco-2 cells worked out at 3.5 ×10⁻⁶ cm/s.

Broadly, the pIC50 is −log10 of the IC50, conventionally taken in molar units. A low value points to a large IC50. Usually Papp B→A stands for how fast a substance crosses the layer from the basolateral side.
